Assay results published in patent US20070293485A1, “DRUG ADMINISTRATION METHODS” (priority 2006, published 2007).
Entries after “also recorded” stand apart in the source; their conditions may differ.

Assays:
malignant cells = experiment: Apoptosis in malignant cells in vitro; format: cell-based
[1] = tested on: advanced solid tumors or lymphomas; experiment: Phase I study, one or two hour infusion: response by RECIST, disease stabilization; format: in vivo, human
Method: (§1) Eligible patients with advanced solid tumors or lymphomas whose tumors had progressed on, or for whom there are no standard therapies, receive Compound A in successive dose cohorts at: 10, 20, 40, 80 and 160 mg/m^2. Dosing is by one or two hour intravenous infusion daily for five consecutive days repeated on a three week cycle. […] Response by RECIST is determined after every 2 cycles.

Drug resistance in vitro = format: cell-based
human blood cells [2] = experiment: Wash off of bound drug from blood cells with fresh plasma; format: in vitro ADME; settings: one, two and four washes
Method: (§2) To test if this binding also occurs with human blood cells, an in vitro experiment was conducted with human whole blood spiked with Compound A concentrations of 1, 5, 10, and 50 μM. […] Results of the analysis of whole blood and plasma are illustrated in FIG. 7. The permanence of the binding was studied by attempting to “wash off” bound drug with fresh plasma. […] This reversible binding to blood cells is the reason for the observed extended plasma terminal half life. The ability of fresh plasma to wash off Compound A from blood cells after one, two and four washes is illustrated in FIGS. 8, 9, and 10, respectively.

human blood cells [3] = experiment: Human whole blood spiked with Compound A in vitro: binding to blood cells; format: in vitro ADME
Method: as §2

[4] = tested on: patients with advanced solid tumors or lymphomas; experiment: Phase I study, one or two hour intravenous infusion daily for five consecutive days on a three week cycle: adverse events, DLT, MTD; format: in vivo
Method: Dosing is by one or two hour intravenous infusion daily for five consecutive days repeated on a three week cycle. […] Response by RECIST is determined after every 2 cycles.

[5] = Phase I study, one or two hour infusion: plasma pharmacokinetics; format: in vivo, human
Method: The objectives of the study described hereafter are to determine the maximum tolerated dose (MTD) and dose limiting toxicities (DLTs), to establish the pharmacokinetics (PKs), and to determine the recommended dose for further clinical development of Compound A.
as §1

xenograft tumor = experiment: Xenograft tumor growth models (preclinical); format: in vivo
[6] = Phase I study: pharmacokinetics in plasma, whole blood and urine of patients; format: in vivo, human
From the text: Analysis has determined that Compound A whole blood concentration is nearly ten times that of plasma concentration. The reversible binding and subsequent slow release of Compound A from blood cells provides a “reservoir” effect to extend the Compound A plasma terminal half life. Further details of these observations are described in an Example that follows. This pharmacokinetic property allows consideration of a less frequent dosing schedule, and a phase I study of weekly intravenous Compound A administration is being implemented.
Pharmacokinetic analyses of plasma samples collected on Day 1 and Day 5 of dosing for every patient were performed in cohort batches during the conduct of the phase I study of Compound A in refractory solid tumors and lymphomas (Protocol C3-05-001). […] Saturation of elimination was an unlikely cause of the extended half life because there was no apparent accumulation of drug in plasma.
The pharmacokinetic sampling procedure in the phase I clinical trial was amended to allow for whole blood and plasma to be collected from study patients. When these samples were analyzed, the binding of Compound A to blood cells was again evident.

[7] = tested on: patients with advanced solid tumors; experiment: Phase I study, daily intravenous infusion (one to six hours) on first five days of a three week cycle: adverse events, DLT, MTD; format: in vivo
From the text: Compound A is designed to inhibit over-expressed ribosomal RNA synthesis in cancer cells by disrupting an essential protein-rDNA quadruplex complex thereby inducing selective apoptosis. A Phase I clinical trial for Compound A has been undertaken to determine the dose limiting toxicities (DLTs), maximum tolerated dose (MTD) and pharmacokinetics (PK) of this agent with administration by infusion for about six hours per day.
(§3) Eligible patients with advanced solid tumors received Compound A in successive dose cohorts at: 10, 20, 40, 80, 160, 240, 360 and 480 mg/m^2. Drug is administered by daily intravenous infusion on the first five consecutive days of a three week cycle and the infusion duration has varied from one hour to six hours. Response by RECIST is determined after every 2 cycles.

advanced solid tumors = experiment: Phase I study, infusion up to six hours: response by RECIST, disease stabilization; format: in vivo, human
Method: as §3

[8] = tested on: protein-rDNA quadruplex interaction; experiment: Inhibition of rRNA biogenesis in cancer cells; format: cell-based

**Q.** Which induction of apoptosis (malignant cells) does the source give for `CN1CCCC1CCNC(=O)c1cn2c3c(c(N4CCC(c5cnccn5)C4)c(F)cc3c1=O)Oc1cc3ccccc3cc1-2` (stereo not drawn) [Compound A] here?
**A.** The induction of apoptosis was “rapidly induces selective apoptosis”.

**Q.** And the “longest period of stable disease to date” value ([1]; 10-160 mg/m^2)?
**A.** Its value is 24 weeks.

**Q.** And the “patients with disease stabilization of longer than / at least four months” value ([1]; 10-160 mg/m^2, 21 patients)?
**A.** The value was “three”.

**Q.** And the “patients with stable disease (SD) at evaluation following two cycles” value ([1]; 10-160 mg/m^2, 21 patients)?
**A.** The value was “Six”.

**Q.** What about the objective tumor responses ([1]; 10-160 mg/m^2, 21 patients, RECIST after every 2 cycles) of the same molecule?
**A.** Its objective tumor responses is “No objective tumor responses”.

**Q.** And the “median duration of disease stabilization” value ([1]; six patients with stable disease)?
**A.** Its value is 14 weeks.

**Q.** And the drug resistance (Drug resistance in vitro)?
**A.** Its drug resistance is “no drug resistance has been observed”.

**Q.** What about the “permanence of binding to blood cells” value (human blood cells [2]) of the same molecule?
**A.** The value was “easily reversible”.

**Q.** And the “saturability of binding to human blood cells” value (human blood cells [3]; even at 50 μM)?
**A.** The value was “not saturable”.

**Q.** What about the “binding to human blood cells” value (human blood cells [3]; human whole blood spiked with 1, 5, 10, and 50 μM) of the same molecule?
**A.** The value was “concentration dependent binding”.

**Q.** What about the tolerability of doses ([4]; 10, 20, 40, 80 and 160 mg/m^2, one or two hour iv infusion daily x5, three week cycle, 21 patients) of the same molecule?
**A.** Its tolerability of doses is “well tolerated”.

**Q.** What about the “drug-related serious adverse events” value ([4]; 10-160 mg/m^2) of the same molecule?
**A.** The value was “No drug-related serious adverse events”.

**Q.** And the “grade 3 adverse events deemed related to Compound A” value ([4]; 10-160 mg/m^2, 21 patients)?
**A.** Its value is “none”.

**Q.** What about the “grade 3 adverse events reported during the study” value ([4]; 10-160 mg/m^2, 21 patients) of the same molecule?
**A.** The value was “nine”.

**Q.** What about the “severity of adverse events deemed at least possibly related to drug” value ([4]; all studied dose levels 10-160 mg/m^2) of the same molecule?
**A.** The value was “grade 1 or 2”.

**Q.** And the “maximum tolerated dose (MTD)” value ([4]; highest dose 160 mg/m^2, one or two hour infusion)?
**A.** Its value is “not yet been defined”.

**Q.** What about the cough during infusion ([4]; one-hour infusion, 160 mg/m^2, resolved spontaneously upon completion of infusion) of the same molecule?
**A.** The cough during infusion was “transient grade 1 cough”.

**Q.** And the “cough after extending the infusion duration” value ([4]; two hour infusion, 160 mg/m^2)?
**A.** Its value is “the cough resolved”.

**Q.** And the dose limiting toxicities ([4]; up to 160 mg/m^2)?
**A.** The dose limiting toxicities was “no observations to date of dose limiting toxicities”.

**Q.** And the “linearity of PK parameters (AUC) with dose level” value ([5]; day 1 of dosing, dose cohorts 10-160 mg/m^2)?
**A.** Its value is “linearity; also recorded: linear pharmacokinetic behavior”.

**Q.** And the half-life ([5]; human, plasma, intravenous, following the first dose (day 1), across all dose levels 10-160 mg/m^2, read-out: plasma terminal half life (converted))?
**A.** Its half-life is roughly 10 h.

**Q.** And the “maximum plasma concentration (Cmax), effect of extending infusion” value ([5]; infusion extended to 2 hours at 160 mg/m^2)?
**A.** The value was “decreased”.

**Q.** What about the “suppression of xenograft tumor growth” value (xenograft tumor) of the same molecule?
**A.** The value was “potency in suppressing xenograft tumor growth with a broad therapeutic window”.

**Q.** What about the urinary clearance rate ([6]; calculated from a 12-hour quantitative urine collection) of the same molecule?
**A.** Its urinary clearance rate is 10 % of the glomerular filtration rate.

**Q.** And the “plasma terminal half life, trend” value ([6]; patients, Day 5 vs Day 1 and dose escalation)?
**A.** The value was “increase with repeated dosing and with each dose level escalation”.

**Q.** And the “saturability of blood cell binding” value ([6]; patients, comparing Day 1 and Day 5)?
**A.** Its value is “did not appear to be saturable”.

**Q.** What about the “whole blood concentration relative to plasma concentration” value ([6]; patients, on Day 1 and on Day 5) of the same molecule?
**A.** The value was “approximately ten”.

**Q.** What about the “accumulation in plasma concentration” value ([6]; patients, repeated dosing) of the same molecule?
**A.** The value was “without significant accumulation”.

**Q.** And the “binding to blood cells” value ([6]; patients, whole blood and plasma specimens)?
**A.** Its value is “bind reversibly to blood cells”.

**Q.** What about the route of elimination ([6]; urine) of the same molecule?
**A.** Its route of elimination is “eliminated unchanged in urine”.

**Q.** What about the MTD ([7]; daily iv infusion x5 days, three week cycle, infusion up to six hours) of the same molecule?
**A.** The MTD was 360 mg/m^2.

**Q.** And the tolerability ([7]; in vivo)?
**A.** Its tolerability is “well tolerated”.

**Q.** And the “duration of stable disease” value (advanced solid tumors; 10 mg/m^2, one patient with prostate cancer)?
**A.** Its value is “six”.

**Q.** And the “duration of stable disease” value (advanced solid tumors; 160 mg/m^2 (internal dose escalation from 80 mg/m2), one patient with anorectal cancer)?
**A.** Its value is “twelve”.

**Q.** And the “duration of stable disease” value (advanced solid tumors; 160 mg/m^2, one patient with liposarcoma)?
**A.** The value was “six”.

**Q.** And the “cycles completed, patient remains on-study” value (advanced solid tumors; 240 mg/m^2 (internal dose escalation from 40 mg/m^2), one patient with neuroendocrine islet cell cancer of the pancreas)?
**A.** The value was 26 cycles.

**Q.** And the “patients with stable disease for longer than four months” value (advanced solid tumors; 42 patients, 10-480 mg/m^2)?
**A.** Its value is “Four”.

**Q.** And the “patients with disease stabilization for longer than one year” value (advanced solid tumors; 42 patients, continuing on study)?
**A.** Its value is “one”.

**Q.** What about the “effect on rRNA biogenesis” value [8] of the same molecule?
**A.** The value was “directly inhibits aberrant rRNA biogenesis”.
